# According to US20050171084A1, “Methods of treatment with lxr modulators” (priority 2002, published 2005):
# Columns and labels:
# [1] = system: ABCA1; assay: ABCA1 gene expression in the CNS after oral dosing; assay type: in vivo, C57 B1/6 mice; conditions: oral gavage, Example 1 10 mg kg twice daily, T0901317 50 mg/kg once daily
# Description: (§1) Total RNA was isolated from tissue and cell culture samples using TRIzol reagent (GibcoBRL). Briefly, tissue samples were thawed directly in 1 ml Trizol/50 mg tissue and homogenized with a polytron. To facilitate recovery of nucleic acid, 100 μg glycogen (Ambion) was added. Cultured cells were lysed in 1 ml Trizol containing 100 μg glycogen per well. Samples were then extracted in chloroform and spun at 4° C. at 11,000×g for 15 min. The aqueous phase was collected and the RNA was precipitated with the addition of isopropanol. The samples were then spun at 11,000×g at 4° C. for 15 min, the pellet washed in 75% ethanol, dried, and dissolved in water. Samples were stored at −70° C. until use.
# Total RNA samples were diluted to 100 μg/ml and treated with 40 units/ml […] DNAse-I (Ambion) for 30 min at 37° C. followed by inactivation at 75° C. for 5 min. Samples were quantitated by spectrophotometry or with the RiboGreen assay (Molecular Probes) and diluted to a concentration of 10 ng/μl. Samples were then assayed in duplicate or triplicate 25-μl reactions using 25 ng RNA per reaction with Perkin Elmer chemistry on an ABI Prism 7700 (Perkin Elmer) according to manufacturer's instructions. Gene-specific primers were used at 7.5 or 22.5 pmol per reaction, optimized for each gene examined, and the gene-specific probe was used at 5 pmol per reaction. Primers and probe were synthesized by Keystone Labs (Camarillo, Calif.). In this system, the probe is degraded by Taq polymerase during the amplification phase, releasing the fluorescent tag from its quenched state; amplification data is expressed as the number of PCR cycles required to elevate the fluorescence signal beyond a threshold intensity level. Fold induction values were calculated by subtracting the mean threshold cycle number (Ct) for each treatment group from the mean Ct for the vehicle group and raising 2 to the power of this difference.
# Adult male C57 B1/6 mice (3 per group) were dosed by oral gavage with the LXR agonists Example 1, T0901317, or vehicle (0.5% methylcellulose). Example 1 was delivered at 10 mg kg twice daily, while T0901317 was administered at 50 mg/kg once daily. After 3 or 7 days' treatment, animals were killed and their brains removed. The cerebellum and both hippocampi were dissected and snap frozen in liquid nitrogen for RNA isolation. Total RNA was prepared from the hippocampus and cerebellum (black bars) and analyzed for gene expression patterns using QRT-PCR (as described above). Expression levels for each gene in each tissue were normalized to the average expression level in the vehicle group. Both LXR agonists enhanced ABCA1 expression relative to the vehicle-treated group, with the effect most pronounced in the cerebellum after 3 days' treatment.
# [2] = system: ABCG1; assay: ABCG1 gene expression in primary neuron cultures (QRT-PCR); assay type: cell-based, mouse; conditions: Neurons
# Description: as §1
# (§2) Total RNA samples were diluted to 100 μg/ml and treated with 40 units/ml […] DNAse-I (Ambion) for 30 min at 37° C. followed by inactivation at 75° C. for 5 min. Samples were quantitated by spectrophotometry or with the RiboGreen assay (Molecular Probes) and diluted to a concentration of 10 ng/μl. […] In this system, the probe is degraded by Taq polymerase during the amplification phase, releasing the fluorescent tag from its quenched state; amplification data is expressed as the number of PCR cycles required to elevate the fluorescence signal beyond a threshold intensity level. […]
# [3] = system: SREBP-1c; assay: SREBP-1c gene expression in primary neuron cultures (QRT-PCR); assay type: cell-based, mouse; conditions: Neurons
# Description: as §1, §2
# [4] = system: ABCA1; assay: ABCA1 gene expression in primary neuron cultures (QRT-PCR); assay type: cell-based, mouse; conditions: Neurons
# Description: as §1, §2
# [5] = system: Primary murine neuronal cultures; assay: Cholesterol efflux from neurons; assay type: cell-based, mouse; conditions: standard deviation in parentheses
# Description: Primary murine neuronal cultures were prepared from C57 B1/6 mice essentially as described elsewhere (23). In brief, embryonic day 18 fetuses were collected by caesarian section, their brains removed and the cerebral cortices dissected from the rest of the brain. The tissue was rinsed during these steps several times in Ca^2+- and Mg^2+-free Hank's balanced salt solution (HBSS, containing 1 mM HEPES, GIBCO). After the meninges were removed with forceps, the tissue was minced and incubated for 15 minutes at 37° C. in 0.25% trypsin (Sigma) in HBSS. The tissue was then washed twice in HBSS and twice in neuronal plating media (minimal essential media [MEM] containing 3 mg/ml glucose, 5% fetal bovine serum [FBS; GibcoBRL], 5% horse serum [HS; GibcoBRL], 100 U/ml penicillin/100 μg/ml streptomycin [Irvine Scientific] and 2 mM glutamine [Irvine Scientific]) to which 10 μg/ml DNAseI (Sigma) had been added. […] The resulting cell pellet was resuspended in plating media, and trypan blue-excluding surviving cells were counted in a hemacytometer. […]
# Cholesterol efflux assays were performed as described elsewhere (24) with some modifications. […] Two hundred microliters of the culture media supernatant and 200 μl of the cell extract were counted for tritium in 2 ml Packard Ultima Gold Scint. […] Efflux is expressed as percent of the total radiolabeled cholesterol pool present in the cultures.
# [6] = system: ABCA1; assay: ABCA1 gene expression in primary astrocyte cultures (QRT-PCR); assay type: cell-based, mouse; conditions: Astrocytes
# Description: as §1, §2
SMILES,"ABCA1 expression normalized to vehicle group ([1]; CB (cerebellum), first table)","ABCA1 expression normalized to vehicle group ([1]; CB (cerebellum), second table)","ABCA1 expression normalized to vehicle group ([1]; HC (hippocampus), first table)","ABCA1 expression normalized to vehicle group ([1]; HC (hippocampus), second table)",ABCG1 expression normalized to vehicle-treated group (fold induction) [2],SREBP-1c expression normalized to vehicle-treated group (fold induction) [3],ABCA1 expression normalized to vehicle-treated group (fold induction) [4],Cholesterol efflux as a percentage of total [3H] cholesterol [5],ABCA1 expression normalized to vehicle-treated group (fold induction) [6]
"O=C(O)Cc1cccc(OCCCN(Cc2cccc(C(F)(F)F)c2Cl)CC(c2ccccc2)c2ccccc2)c1 [Example 1, 2-(3-{3-[[2-Chloro-3-(trifluoromethyl)benzyl](2,2-diphenylethyl)amino]propoxy}-phenyl)acetic Acid]",2.13 (0.354),1.43 (0.302),1.57 (0.348),1.26 (0.162),2.8,3.1,2.8,1.252 (0.179) %,11.8
"O=S(=O)(c1ccccc1)N(CC(F)(F)F)c1ccc(C(O)(C(F)(F)F)C(F)(F)F)cc1 [Example T0901317, N-(2,2,2-trifluoroethyl)-N-[4-(2,2,2-trifluoro-1-hydroxy-1-trifluoromethyl-ethyl)-phenyl]-benzenesulfonamide]",3.66 (0.389),2.94 (0.084),2.70 (0.304),2.69 (0.175),3.1,3.1,3.0,1.427 (0.031) %,18.4
